According to patent publication US7928119B2, “Use of EP4 receptor ligands in the treatment of IL-6 involved diseases” (Pfizer Inc., priority 2002, dated 2011):

What was measured:
human PBMC = experiment: PGE2 stimulation of IL-6 secretion in ConA-treated human PBMC and its inhibition by EP4 antagonists (ELISA); type: cell-based
Protocol: PBMC were stimulated with 5 μg/ml of Con A alone or with 10 nM to 1000 nM PGE2 at 37° C. for 24 hr. The secreted IL-6 in culture medium was measured by ELISA. Data are expressed as mean±s.d. (FIG. 1)
The PGE2 concentration-dependence of stimulation of IL-6 secretion by human PBMC without and with ConA-stimulation, and the inhibitory effect of Compound A. PBMC were stimulated with 5 μg/ml of Concanavalin A alone or with 10 nM to 1000 nM PGE2 at 37° C. in 5% CO2 for 24 hr. To see the effect of Compound A, 50 μM of Compound A was added simultaneously with ConA and PGE2, and incubated for 24 hr. Data in parenthesis are expressed % control of mitocondorial dehydrogenase activity. (FIG. 2)
Compound A and Compound B inhibited the IL-6 secretion in ConA-treated PBMC. (FIG. 3.) PBMC were incubated with 5 μg/ml of Con A, 100 nM PGE2 and various doses of EP4 antagonists at 37° C. for 24 hr. The secreted IL-6 in culture medium was measured by ELISA. Data are expressed as mean±s.d.

Compound	melting point	further results
CCc1nc2cc(NS(C)(=O)=O)c(Cl)cc2n1-c1ccc(CCNC(=O)NS(=O)(=O)c2ccc(C)cc2)cc1	101 to 123 °C	–
CCc1nc2cc(NC(C)=O)c(Cl)cc2n1-c1ccc(CCNC(=O)NS(=O)(=O)c2ccc(C)cc2)cc1	125 to 133 °C	–
CCc1nc2c(Cl)nc(C)cc2n1-c1ccc(CCNC(=O)NS(=O)(=O)c2ccc(C)cc2)cc1	163 °C	–
CCc1nc2c(C)cc(C)nc2n1-c1ccc(CCNC(=O)NS(=O)(=O)c2cc3ccccc3s2)cc1	128 to 130 °C	–
CCc1nc2cc(NC)c(Cl)cc2n1-c1ccc(CCNC(=O)NS(=O)(=O)c2ccc(C)cc2)cc1	95 to 100 °C	–
CCc1nc2c(C(N)=O)cccc2n1-c1ccc(CCNC(=O)NS(=O)(=O)c2ccc(C)cc2)cc1	208 to 214 °C	–
CCc1nc2cc(S(C)(=O)=O)c(Cl)cc2n1-c1ccc(CCNC(=O)NS(=O)(=O)c2ccc(C)cc2)cc1	105 to 118 °C	–
CCc1nc2cc(S(N)(=O)=O)c(Cl)cc2n1-c1ccc(CCNC(=O)NS(=O)(=O)c2ccc(C)cc2)cc1	163 to 170 °C	–
CCc1nc2c(C)c(C#N)c(C)cc2n1-c1ccc(CCNC(=O)NS(=O)(=O)c2ccc(C)cc2)cc1	140 to 145 °C	–
CCc1nc2cc(Cl)c(Cl)nc2n1-c1ccc(CCNC(=O)NS(=O)(=O)c2ccc(C)cc2)cc1	188 to 189 °C	–
CCc1nc2c(C)c(NS(C)(=O)=O)cnc2n1-c1ccc(CCNC(=O)NS(=O)(=O)c2ccc(C)cc2)cc1	166 °C	–
CCc1nc2c(C)cc(C)nc2n1-c1ccc(CC(C)NC(=O)NS(=O)(=O)c2ccc(C)cc2)cc1 (stereo not shown)	128 °C	–
CCc1nc2c(C)cc(C)nc2n1-c1ccc(CCNC(=O)NS(=O)(=O)c2ccc(C)cc2)cc1 [Compound A, N-[({2-[4-(2-ethyl-5,7-dimethyl-3H-imidazo[4,5-b]pyridin-3-yl)phenyl]ethyl}amino)carbonyl]-4-methylbenzenesulfonamide]	–	IL-6 production enhanced by PGE2 (human PBMC; ConA-treated PBMC, 50 μM compound, PGE2 10-1000 nM, 24 hr): significantly inhibited; IC50 (human PBMC; Homo sapiens, PBMC stimulated with 5 μg/ml ConA and 100 nM PGE2 for 24 hr, read-out: IC50 of inhibition of IL-6 production): 0.013 µM
CCc1nc2cc(C)c(Cl)nc2n1-c1ccc(CCNC(=O)NS(=O)(=O)c2ccc(C)cc2)cc1 [Example 38, 5-CHLORO-2-ETHYL-6-METHYL-3-(4-{2-[({[(4-METHYLPHENYL)SULFONYL]AMINO}CARBONYL)AMINO]ETHYL}PHENYL)-3H-IMIDAZO[4,5-b]PYRIDINE]	205 to 206 °C	–
CCc1nc2c(C)c(C#N)c(C)nc2n1-c1ccc(CCNC(=O)NS(=O)(=O)c2ccc(C)cc2)cc1 [Example 41, 6-CYANO-2-ETHYL-5,7-DIMETHYL-3-(4-{2-[({[(4-METHYLPHENYL)SULFONYL]AMINO}CARBONYL)AMINO]ETHYL}PHENYL)-3H-IMIDAZO[4,5-b]PYRIDINE]	133 °C	–
CCc1nc2c(C)cc(C)nc2n1-c1ccc(CCNC(=O)NS(=O)(=O)c2ccncc2)cc1 [Example 274, 2-ETHYL-3-(4-{2-[({[4-PYRIDINYLSULFONYL]AMINO}CARBONYL)AMINO]ETHYL}PHENYL)-5,7-DIMETHYL-3H-IMIDAZO[4,5-b]PYRIDINE]	227.9 to 228.7 °C	–
CCc1nc2c(C#N)cccc2n1-c1ccc(CCNC(=O)NS(=O)(=O)c2ccc(C)cc2)cc1 [Example 321, 4-CYANO-2-ETHYL-1-(4-{2-[({[(4-METHYLPHENYL)SULFONYL]AMINO}CARBONYL)AMINO]ETHYL}PHENYL)-1H-BENZIMIDAZOLE]	95 to 103 °C	–
CCc1nc2cc(C(=O)NC)c(Cl)cc2n1-c1ccc(CCNC(=O)NS(=O)(=O)c2ccc(C)cc2)cc1 [Example 333, 6-CHLORO-2-ETHYL-N-METHYL-1-(4-{2-[({[(4-METHYLPHENYL)SULFONYL]AMINO}CARBONYL)AMINO]ETHYL}PHENYL)-1H-BENZIMIDAZOLE-5-CARBOXAMIDE]	122 to 135 °C	–
CCc1nc2cc(COC)c(Cl)cc2n1-c1ccc(CCNC(=O)NS(=O)(=O)c2ccc(C)cc2)cc1 [Example 338, N-({[2-(4-{6-CHLORO-2-ETHYL-5-[(METHYLOXY)METHYL]-1H-BENZIMIDAZOL-1-YL}PHENYL)ETHYL]AMINO}CARBONYL)-4-METHYLBENZENSULFONAMIDE]	134.6 °C	–
CCc1nc2cc(C(C)O)ccc2n1-c1ccc(CCNC(=O)NS(=O)(=O)c2ccc(C)cc2)cc1 (stereo not shown) [Example 345, N-{[(2-{4-[2-ETHYL-5-(1-HYDROXYETHYL)-1H -BENZIMIDAZOL-1-YL]PHENYL}ETHYL)AMINO]CARBONYL}-4-METHYLBENZENESULFONAMIDE]	190 °C	–
Concanavalin A [ConA]	–	secretion of IL-6 (human PBMC; PBMC, 5 μg/ml ConA, 24 hr, without PGE2): enhanced

Continued, in another order:

melting point	Compound	further results
152 to 163 °C	CCc1nc2cc(C(N)=O)c(Cl)cc2n1-c1ccc(CCNC(=O)NS(=O)(=O)c2ccc(C)cc2)cc1	–
127 to 130 °C	CCc1nc2cc(C(F)(F)F)c(Cl)cc2n1-c1ccc(CCOC(=O)NS(=O)(=O)c2ccccn2)cc1	–
200.2 °C	CCc1nc2cc(C(F)(F)F)c(Cl)cc2n1-c1ccc(CCN(C(=O)O)S(=O)(=O)c2ccc(C)cn2)cc1.Cl.Cl	–
203.4 °C	CCc1nc2cc(C(F)(F)F)c(Cl)cc2n1-c1ccc(CCOC(=O)NS(=O)(=O)c2cccc3c(N(C)C)cccc23)cc1	–
108 to 114 °C	CCc1nc2cc(N(C)C)c(Cl)cc2n1-c1ccc(CCNC(=O)NS(=O)(=O)c2ccc(C)cc2)cc1	–
145 to 150 °C	CCc1nc2cc(C(=O)O)c(Cl)cc2n1-c1ccc(CCNC(=O)NS(=O)(=O)c2ccc(C)cc2)cc1 [Example 112, 6-CHLORO-2-ETHYL-1-(4-{2-[({[(4-METHYLPHENYL)SULFONYL]AMINO}CARBONYL)AMINO]ETHYL}PHENYL)-1H-BENZIMIDAZOLE-5-CARBOXYLIC ACID]	–
141 to 143 °C	CCc1nc2cc(C(F)(F)F)c(Cl)cc2n1-c1ccc(C[C@H](C)NC(=O)NS(=O)(=O)c2ccc(C)cc2)cc1 [Example 254, N-{[((1S)-2-{4-[6-CHLORO-2-ETHYL-5-(TRIFLUOROMETHYL)-1H-BENZIMIDAZOL-1-YL]PHENYL}-1-METHYLETHYL)AMINO]CARBONYL}-4-METHYLBENZENESULFONAMIDE]	–
138 to 141 °C	CCc1nc2cc(C(F)(F)F)c(Cl)cc2n1-c1ccc(C[C@@H](C)NC(=O)NS(=O)(=O)c2ccc(C)cc2)cc1 [Example 255, N-{[((1R)-2-{4-[6-CHLORO-2-ETHYL-5-(TRIFLUOROMETHYL)-1H-BENZIMIDAZOL-1-YL]PHENYL}-1-METHYLETHYL)AMINO]CARBONYL}-4-METHYLBENZENESULFONAMIDE]	–
204.3 °C	CCc1nc2cc(C(F)(F)F)c(Cl)cc2n1-c1ccc(CCOC(=O)NS(=O)(=O)c2cn(C)cn2)cc1 [Example 292, 2-{4-[6-CHLORO-2-ETHYL-5-(TRIFLUOROMETHYL)-1H-BENZIMIDAZOL-1-YL]PHENYL}ETHYL-(1-METHYL-1H-IMIDAZOL-4-YL)SULFONYLCARBAMATE]	–
221.2 °C	CCc1nc2cc(C(F)(F)F)c(Cl)cc2n1-c1ccc(CCOC(=O)NS(=O)(=O)c2cn(C)c(C)n2)cc1 [Example 294, 2-{4-[6-CHLORO-2-ETHYL-5-(TRIFLUOROMETHYL)-1H-BENZIMIDAZOL-1-YL]PHENYL}ETHYL-(1,2-DIMETHYL-1H-IMIDAZOL-4-YL)SULFONYLCARBAMATE]	–
220 °C	Cc1ccc(S(=O)(=O)NC(=O)NCCc2ccc(-n3c(C(C)O)nc4cc(C(F)(F)F)c(Cl)cc43)cc2)cc1 (stereo not shown) [Example 367, N-{[(2-{4-[6-CHLORO-2-(1-HYDROXYETHYL)-5-(TRIFLUOROMETHYL)-1H-BENZIMIDAZOL-1-YL]PHENYL}ETHYL)AMINO]CARBONYL}-4-METHYLBENZENESULFONAMIDE]	–
225 °C	CC(=O)c1nc2cc(C(F)(F)F)c(Cl)cc2n1-c1ccc(CCNC(=O)NS(=O)(=O)c2ccc(C)cc2)cc1 [Example 368, N-{[(2-{4-[2-ACETYL-6-CHLORO-5-(TRIFLUOROMETHYL)-1H-BENZIMIDAZOL-1-YL]PHENYL}ETHYL)AMINO]CARBONYL}-4-METHYLBENZENESULFONAMIDE]	–
